Experimental data from US5668144A, “1-azabicyclopheptane derivatives” (American Home Products Corporation, priority 1996, dated 1997).

Key:
[1] = biological target: T1, M1 acetylcholine receptors (Homo sapiens, UniProt P11229); experiment: PI hydrolysis stimulation in CHO cells expressing M1 acetylcholine receptors (muscarinic m1 agonism); format: cell-based; conditions: exo versus endo azacycloheptane analog
T1 sequence (P11229 1-460): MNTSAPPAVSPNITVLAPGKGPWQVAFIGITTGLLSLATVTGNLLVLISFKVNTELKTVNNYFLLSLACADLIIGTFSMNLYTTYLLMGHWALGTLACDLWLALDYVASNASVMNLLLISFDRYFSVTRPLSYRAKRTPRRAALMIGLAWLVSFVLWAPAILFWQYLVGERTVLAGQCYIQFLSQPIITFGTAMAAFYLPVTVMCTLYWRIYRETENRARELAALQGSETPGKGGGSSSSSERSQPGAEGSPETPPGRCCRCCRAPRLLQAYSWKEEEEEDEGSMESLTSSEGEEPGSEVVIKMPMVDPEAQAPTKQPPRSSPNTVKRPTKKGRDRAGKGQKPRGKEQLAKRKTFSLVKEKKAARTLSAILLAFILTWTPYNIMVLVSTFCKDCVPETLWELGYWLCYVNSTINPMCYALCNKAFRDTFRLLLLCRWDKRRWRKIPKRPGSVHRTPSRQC

[2] = system: scopolamine disrupted rat performance; experiment: Eight arm radial maze, reversal of scopolamine disrupted rat performance; format: in vivo, Sprague-Dawley male rats; conditions: ip, test compound i.p., scopolamine HBr 0.3 mg/kg s.c., read-out: minimum effective dose (MED), reversal of scopolamine disrupted rat performance
Experimental: The compound of Example 3 was also tested in the eight arm radial maze test procedure in which Sprague-Dawley male rats at 85% of their free feeding weight are trained to obtain two food pellets from food cups placed at the ends of four of the eight arms radiating from a circular central area of the maze, in a five minute period. After training to a level of error (return to a previously entered arm is error) equal to or less than 2, the rats performance is disrupted with scopolamine HBr (0.3 mg/kg, s.c.) and test compound dosage (i.p.). The number of errors are then determined and compared with control receiving scopolamine alone.

[3] = system: scopolamine treated animals; experiment: Reversal of scopolamine hyperactivity, mouse swim tank test; format: in vivo, Male CFW mice; conditions: ip, scopolamine HBr 0.3 mg/kg, read-out: minimum effective dose (MED), reversal of hyperactivity of scopolamine treated animals
Experimental: The compound of Example 3, representative of the other compounds of this invention, was also tested in accordance with the procedure of Symons et al, Soc. Neuroscience Abstracts 12:2, 897 (1986) in which Male CFW mice, 25 to 35 grams in weight are given the test compound in suitable vehicle plus 0.3 mg/kg scopolamine. HBr in suitable vehicle, i.p.(3 groups of 12 animals each) or vehicle alone (1 group of 12 animals ) or vehicle plus scopolamine. HBr (1 group of 12 animals). The mice are placed in a swim tank, individually, containing 10 cm H2 O for a period of 5 minutes and the distance each animal swims is recorded.

[4] = system: patients with mild to moderate Alzheimer's Disease; conditions: cited from earlier work; for memory in patients (in words): mild to moderate Alzheimer's Disease
[5] = in vivo; cited from earlier work
[6] = quaternary ammonium group; cited from earlier work
[7] = system: muscarinic receptors; conditions: disclosed in earlier patents; cited from earlier work
[8] = system: m1 receptors; conditions: cited from earlier work

SMILES: CNC(=O)O[C@@H]1CN2CC[C@@H]1C2 (relative stereo) [Example 1, (exo)-Methylcarbamic acid 1-aza-bicyclo[2.2.1]hept-3-yl ester]
- muscarinic agonism (in words) [1]: enhanced muscarinic agonism

SMILES: CNC(=O)O[C@@H]1CN2CC[C@H]1C2 (relative stereo) [endo azacycloheptane analog]
- muscarinic agonism (in words) [1]: not

SMILES: CNC(=O)O[C@@H]1CN2CC[C@@H]1C2 (single isomer, unassigned) [Example 2, (+)-(exo)-Methylcarbamic acid 1-aza-bicyclo[2.2.1]hept-3-yl ester]
- minimal effective dose [2]: 1 mg/kg

SMILES: CNC(=O)O[C@@H]1CN2CC[C@@H]1C2 (single isomer, unassigned) [Example 3, (-)-(exo)-Methylcarbamic acid 1-aza-bicyclo[2.2.1]hept-3-yl ester]
- minimal effective dose [3]: 30 mg/kg

SMILES: COC(=O)C1=CCCN(C)C1 [Arecoline]
- memory in patients (in words) [4]: memory improvement
- half-life (in words) [5]: short

SMILES: C[N+](C)(C)CCOC(N)=O [carbachol]
- ability to enter the CNS (in words) [6]: not able to enter the CNS

SMILES: CNC(=O)OC1CN2CCCC1C2 (stereo not drawn) [exo-1-azabicyclo[3.2.1]oct-6-yl-N-methylcarbamate]
- muscarinic activity (in words) [7]: muscarinic activity

SMILES: CN(C)C(=O)OC1CC2CCCN(C2)C1 (stereo not drawn) [exo-1-azabicyclo[3.3.1]non-3-yl-N,N-dimethylcarbamate]
- muscarinic activity (in words) [7]: muscarinic activity

SMILES: CNC(=O)OC1CC2CCCN(C2)C1 (stereo not drawn) [exo-1-azabicyclo[3.3.1]non-3-yl-N-methylcarbamate]
- muscarinic activity (in words) [7]: muscarinic activity

SMILES: C[C@@H]1O[C@H](C[N+](C)(C)C)C[C@H]1O [muscarine]
- ability to enter the CNS (in words) [6]: not able to enter the CNS
- activation of m1 receptors (in words) [8]: able to fully activate m1 receptors

SMILES: Nc1c2c(nc3ccccc13)CCCC2 [tacrine]
- adverse side effects (in words) ([4]; especially at the higher doses where it is most effective): adverse side effects especially at the higher doses
- memory in patients (in words) [4]: improvement in memory
